Like-named read-outs stand apart in the source and are kept apart here.
Assays:
Opioid δ2 = test system: T1, Opioid δ2; assay: Cerep binding; design: species or system human; settings: 10 μM; [3H]DADLE; hum. recomb. (CHO)
T1 construct: host or cells: CHO

GABAA-α5 receptors = target: T2, GABAA-α5 receptors (Homo sapiens, UniProt P18507+P31644); assay: [11C]-Ro 15-4513 PET receptor occupancy study in healthy volunteers; type: in vivo; settings: for EC50: Emax model, nine subjects
T2 construct: occupancy at the GABAA-α5 subunit-containing receptors in the human brain after oral dosing; from tissue; host or cells: brain of healthy human volunteers, in vivo PET
T2 sequence (P31644 32-462): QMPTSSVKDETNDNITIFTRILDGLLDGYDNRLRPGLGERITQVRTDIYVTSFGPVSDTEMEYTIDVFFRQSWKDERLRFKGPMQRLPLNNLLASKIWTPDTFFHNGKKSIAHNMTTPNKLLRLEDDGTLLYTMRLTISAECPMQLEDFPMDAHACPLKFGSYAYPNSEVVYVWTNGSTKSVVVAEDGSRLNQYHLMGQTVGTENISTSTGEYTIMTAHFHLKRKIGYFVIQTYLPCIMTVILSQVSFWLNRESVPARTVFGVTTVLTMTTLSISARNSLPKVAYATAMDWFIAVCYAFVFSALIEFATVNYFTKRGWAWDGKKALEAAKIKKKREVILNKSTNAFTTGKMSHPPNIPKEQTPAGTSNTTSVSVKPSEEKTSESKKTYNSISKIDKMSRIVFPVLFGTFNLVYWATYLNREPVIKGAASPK
T2 sequence (P18507 40-467 limits assumed): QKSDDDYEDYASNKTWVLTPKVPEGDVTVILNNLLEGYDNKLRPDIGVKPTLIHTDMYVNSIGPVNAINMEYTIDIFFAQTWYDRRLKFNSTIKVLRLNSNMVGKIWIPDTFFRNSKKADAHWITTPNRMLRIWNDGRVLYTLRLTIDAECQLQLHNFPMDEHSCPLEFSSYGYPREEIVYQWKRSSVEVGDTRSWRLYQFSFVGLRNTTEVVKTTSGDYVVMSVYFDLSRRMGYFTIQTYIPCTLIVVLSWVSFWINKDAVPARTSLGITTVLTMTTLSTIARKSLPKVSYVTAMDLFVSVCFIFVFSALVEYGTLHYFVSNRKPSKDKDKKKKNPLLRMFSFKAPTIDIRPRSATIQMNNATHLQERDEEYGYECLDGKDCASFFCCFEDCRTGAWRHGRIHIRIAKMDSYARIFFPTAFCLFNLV
T2 sequence (P28472 26-473 partner): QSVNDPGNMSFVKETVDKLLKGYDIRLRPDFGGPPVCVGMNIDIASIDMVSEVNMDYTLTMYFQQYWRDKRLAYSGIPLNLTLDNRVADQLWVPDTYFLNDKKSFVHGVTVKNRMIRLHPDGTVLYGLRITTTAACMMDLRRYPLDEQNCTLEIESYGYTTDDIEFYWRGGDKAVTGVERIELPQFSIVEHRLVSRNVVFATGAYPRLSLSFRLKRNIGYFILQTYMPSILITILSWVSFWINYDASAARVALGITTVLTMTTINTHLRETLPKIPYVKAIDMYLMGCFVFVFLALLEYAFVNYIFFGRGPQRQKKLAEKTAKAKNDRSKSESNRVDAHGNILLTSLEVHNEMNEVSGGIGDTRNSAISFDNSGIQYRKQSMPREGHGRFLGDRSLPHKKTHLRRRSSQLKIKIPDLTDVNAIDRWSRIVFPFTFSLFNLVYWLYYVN
Text: The PET study was undertaken as part of Protocol BP25611 and after four protocol amendments was described as: “A single-center, single blind molecular and functional imaging study to assess GABAA-α5 receptor expression, occupancy and functional connectivity in the brains of individuals with Down syndrome and healthy controls following a single oral administration of RO5186582 or placebo”. Full details of the protocol can be found in the Supplementary Information. The study was registered on August 17, 2012 with clinicaltrials.gov identifier NCT01667367.
Subjects returned for a follow-up visit approximately 7 to 10 days after their last dose of study medication.
The study was single-blind, i.e., subjects were blinded to dose. Blood sampling was performed at four different timepoints starting 30 min before the post dose PET scan.
Tissue time activity curves were analyzed using the simplified reference tissue model (SRTM[71]), with a basis pursuit implementation of the SRTM[72], to directly estimate the binding potential (BPND) in all target regions. […] Therefore, the time-activity curve derived from the cerebellum was used as an input for SRTM analysis.
Occupancy in scan 2 was estimated as a fractional reduction in the relevant baseline BPND (see Eq. (3)).3 Occ=BPNDBaseline-BPNDBasmisanil/BPNDBaseline.
The pharmacokinetic/pharmacodynamic population for GABAA-α5 receptor occupancy consisted of data from 9 subjects.

[1] = test system: T3, Norepinephrine transporter; assay: Cerep binding; design: species or system human; settings: 10 μM; [3H]nisoxetine; hum. recomb. (CHO)
T3 construct: host or cells: CHO

[2] = target: T4, human GABAA α1β3γ2 receptors (Homo sapiens, UniProt P14867+P18507); assay: [3H]-flumazenil competition binding, HEK293 membranes; settings: 1 nM [3H]-flumazenil
T4 construct: expressed in transfected cells; host or cells: HEK293-EBNA, transient

[3] = subject 11010, 40 mg, 3.75 h prior to scan
[4] = subject 11020, 160 mg, 3.12 h prior to scan
[5] = subject 11021, 160 mg, 3.00 h prior to scan
[6] = subject 13010, 40 mg, 2.63 h prior to scan
[7] = subject 13030, 1000 mg, 4.75 h prior to scan
[8] = subject 13031, 1000 mg, 4.77 h prior to scan
[9] = subject 13040, 20 mg, 1.48 h prior to scan
[10] = subject 13041, 20 mg, 2.20 h prior to scan
[11] = subject 13050, 80 mg, 2.43 h prior to scan

In the case of `Cc1onc(-c2ccc(F)cc2)c1COc1ccc(C(=O)N2CCS(=O)(=O)CC2)cn1` [basmisanil], the “% Inhibition” value (Opioid δ2) is reported as 8%, the EC50 (GABAA-α5 receptors; read-out: EC50 of receptor occupancy, free plasma concentration) is reported as 67 nM and the EC50 (GABAA-α5 receptors; read-out: EC50 of receptor occupancy, total plasma concentration (converted)) is reported as ~1210 nM. The “Receptor occupancy, Accumbens” value (GABAA-α5 receptors; [3]) was 52.1%, the “Receptor occupancy, Amygdala” value (GABAA-α5 receptors; [3]) was 53.5% and the “Receptor occupancy, Anterior cingulate” value (GABAA-α5 receptors; [3]) was 44.8%. For the same molecule, the “Receptor occupancy, Hippocampus” value (GABAA-α5 receptors; [3]) was 48.4%, the “Receptor occupancy, Insular cortex” value (GABAA-α5 receptors; [3]) was 44.6% and the “Receptor occupancy, Mean” value (GABAA-α5 receptors; [3]) was 48.68%. For the same molecule, the “Receptor occupancy, Accumbens” value (GABAA-α5 receptors; [4]) was 86.6%, the “Receptor occupancy, Amygdala” value (GABAA-α5 receptors; [4]) was 91.4% and the “Receptor occupancy, Anterior cingulate” value (GABAA-α5 receptors; [4]) was 75.6%. The “Receptor occupancy, Hippocampus” value (GABAA-α5 receptors; [4]) was 87.2%, the “Receptor occupancy, Insular cortex” value (GABAA-α5 receptors; [4]) was 75.2% and the “Receptor occupancy, Mean” value (GABAA-α5 receptors; [4]) was 83.2%. For the same molecule, the “Receptor occupancy, Accumbens” value (GABAA-α5 receptors; [5]) was 87.0%, the “Receptor occupancy, Amygdala” value (GABAA-α5 receptors; [5]) was 85.4% and the “Receptor occupancy, Anterior cingulate” value (GABAA-α5 receptors; [5]) was 76.4%. The “Receptor occupancy, Hippocampus” value (GABAA-α5 receptors; [5]) was 85.9%, the “Receptor occupancy, Insular cortex” value (GABAA-α5 receptors; [5]) was 77.2% and the “Receptor occupancy, Mean” value (GABAA-α5 receptors; [5]) was 82.38%. For the same molecule, the “Receptor occupancy, Accumbens” value (GABAA-α5 receptors; [6]) was 37.3%, the “Receptor occupancy, Amygdala” value (GABAA-α5 receptors; [6]) was 40% and the “Receptor occupancy, Anterior cingulate” value (GABAA-α5 receptors; [6]) was 32.7%. For the same molecule, the “Receptor occupancy, Hippocampus” value (GABAA-α5 receptors; [6]) was 41.3%, the “Receptor occupancy, Insular cortex” value (GABAA-α5 receptors; [6]) was 32% and the “Receptor occupancy, Mean” value (GABAA-α5 receptors; [6]) was 36.66%. For the same molecule, the “Receptor occupancy, Accumbens” value (GABAA-α5 receptors; [7]) was 89.5%, the “Receptor occupancy, Amygdala” value (GABAA-α5 receptors; [7]) was 93.1% and the “Receptor occupancy, Anterior cingulate” value (GABAA-α5 receptors; [7]) was 79.1%. For the same molecule, the “Receptor occupancy, Hippocampus” value (GABAA-α5 receptors; [7]) was 94.2%, the “Receptor occupancy, Insular cortex” value (GABAA-α5 receptors; [7]) was 79.9% and the “Receptor occupancy, Mean” value (GABAA-α5 receptors; [7]) was 87.16%. For the same molecule, the “Receptor occupancy, Accumbens” value (GABAA-α5 receptors; [8]) was 93.7%, the “Receptor occupancy, Amygdala” value (GABAA-α5 receptors; [8]) was 97.4% and the “Receptor occupancy, Anterior cingulate” value (GABAA-α5 receptors; [8]) was 82.1%. The “Receptor occupancy, Hippocampus” value (GABAA-α5 receptors; [8]) was 94.9%, the “Receptor occupancy, Insular cortex” value (GABAA-α5 receptors; [8]) was 82.2% and the “Receptor occupancy, Mean” value (GABAA-α5 receptors; [8]) was 90.06%. The “Receptor occupancy, Accumbens” value (GABAA-α5 receptors; [9]) was 29.6%, the “Receptor occupancy, Amygdala” value (GABAA-α5 receptors; [9]) was 30.9% and the “Receptor occupancy, Anterior cingulate” value (GABAA-α5 receptors; [9]) was 26.2%. For the same molecule, the “Receptor occupancy, Hippocampus” value (GABAA-α5 receptors; [9]) was 26.8%, the “Receptor occupancy, Insular cortex” value (GABAA-α5 receptors; [9]) was 26.7% and the “Receptor occupancy, Mean” value (GABAA-α5 receptors; [9]) was 28.04%. The “Receptor occupancy, Accumbens” value (GABAA-α5 receptors; [10]) was 31.8%, the “Receptor occupancy, Amygdala” value (GABAA-α5 receptors; [10]) was 34.7% and the “Receptor occupancy, Anterior cingulate” value (GABAA-α5 receptors; [10]) was 31.7%. The “Receptor occupancy, Hippocampus” value (GABAA-α5 receptors; [10]) was 35.8%, the “Receptor occupancy, Insular cortex” value (GABAA-α5 receptors; [10]) was 31.7% and the “Receptor occupancy, Mean” value (GABAA-α5 receptors; [10]) was 33.14%. The “Receptor occupancy, Accumbens” value (GABAA-α5 receptors; [11]) was 64.2%, the “Receptor occupancy, Amygdala” value (GABAA-α5 receptors; [11]) was 63.5% and the “Receptor occupancy, Anterior cingulate” value (GABAA-α5 receptors; [11]) was 55.8%. For the same molecule, the “Receptor occupancy, Hippocampus” value (GABAA-α5 receptors; [11]) was 63%, the “Receptor occupancy, Mean” value (GABAA-α5 receptors; [11]) was 60.86% and the “% Inhibition” value [1] was 11%. The Ki [2] was 1030 ± 54 nM.

From paper PMC8032764 (Scientific Reports, 2021)
